Assay results reported in ChEMBL document CHEMBL1201862, “PubChem BioAssay data set” (2004).
Active and inactive are the calls of the source. Rule as the data show it: actives have a measured IC50 and inactives only a lower limit.

What was measured:
[1] = molecular target: T1, Sentrin-specific protease 6 (Homo sapiens, UniProt Q9GZR1); test: SAR Analysis of small molecule inhibitors of Sentrin-specific protease 6 (SENP6) using a Luminescent assay. [Related pubchem assays (depositor defined):AID2582, AID2599]; assay type: functional
T1 sequence (Q9GZR1 whole entry): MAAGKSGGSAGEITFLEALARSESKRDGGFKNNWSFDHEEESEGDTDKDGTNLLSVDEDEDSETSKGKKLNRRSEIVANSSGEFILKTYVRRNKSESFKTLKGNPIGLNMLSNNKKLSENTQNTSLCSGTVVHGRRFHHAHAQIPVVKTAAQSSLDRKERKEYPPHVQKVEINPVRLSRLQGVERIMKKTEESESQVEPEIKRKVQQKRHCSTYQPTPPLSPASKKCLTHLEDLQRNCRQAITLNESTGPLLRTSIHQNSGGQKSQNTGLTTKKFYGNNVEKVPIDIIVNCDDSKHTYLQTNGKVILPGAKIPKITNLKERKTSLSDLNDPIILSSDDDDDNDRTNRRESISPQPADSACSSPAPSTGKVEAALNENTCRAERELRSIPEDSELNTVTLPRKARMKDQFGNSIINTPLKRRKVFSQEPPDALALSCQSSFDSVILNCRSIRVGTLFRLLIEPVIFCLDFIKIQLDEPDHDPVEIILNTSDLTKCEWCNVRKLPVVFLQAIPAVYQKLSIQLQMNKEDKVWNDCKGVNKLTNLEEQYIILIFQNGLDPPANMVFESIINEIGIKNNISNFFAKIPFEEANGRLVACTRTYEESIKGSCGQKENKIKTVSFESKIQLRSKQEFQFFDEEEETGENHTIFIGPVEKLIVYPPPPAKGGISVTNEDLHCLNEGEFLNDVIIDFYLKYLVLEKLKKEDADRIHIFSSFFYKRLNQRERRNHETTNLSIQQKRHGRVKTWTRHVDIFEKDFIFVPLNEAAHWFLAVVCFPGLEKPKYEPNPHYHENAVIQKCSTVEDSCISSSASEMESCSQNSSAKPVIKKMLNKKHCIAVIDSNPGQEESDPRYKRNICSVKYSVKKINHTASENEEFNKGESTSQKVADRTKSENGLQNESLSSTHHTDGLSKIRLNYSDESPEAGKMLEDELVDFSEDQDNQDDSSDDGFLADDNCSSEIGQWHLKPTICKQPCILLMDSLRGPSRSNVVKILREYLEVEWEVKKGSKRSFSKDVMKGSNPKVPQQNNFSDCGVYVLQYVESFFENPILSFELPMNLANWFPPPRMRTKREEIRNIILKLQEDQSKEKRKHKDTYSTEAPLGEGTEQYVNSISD

Caspase-3 = molecular target: T2, Caspase-3 (Homo sapiens, UniProt P42574); assay type: functional;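 also: Dose-response selectivity test against caspase-3 for candidate inhibitors of sentrin-specific proteases (SENPs)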
T2 sequence (P42574 whole entry): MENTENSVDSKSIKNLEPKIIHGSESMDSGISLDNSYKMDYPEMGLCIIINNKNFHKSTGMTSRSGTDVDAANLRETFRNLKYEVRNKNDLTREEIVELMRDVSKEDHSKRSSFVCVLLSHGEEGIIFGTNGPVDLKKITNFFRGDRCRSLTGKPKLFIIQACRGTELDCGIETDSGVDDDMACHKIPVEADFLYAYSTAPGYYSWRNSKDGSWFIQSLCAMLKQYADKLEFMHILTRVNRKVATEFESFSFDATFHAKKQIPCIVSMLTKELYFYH

O=C(NN=c1c(=O)c2ccccc2c1=O)c1ccccc1
IC50 [1]: 5.31 µM (active)
IC50 (Caspase-3): > 100 µM (inactive)
